According to paper PMC5218480 (PLoS ONE, 2017):

Test system: MV-4-11 cells
Experiment: Gene expression microarray analysis (Affymetrix PrimeView) and GSEA
Assay type: cell-based, human
Set-up: RFU PODN (11730768_x_at) / Fold change /veh PODN (11730768_x_at) / RFU LINC00158 (11744669_a_at) / Fold change /veh LINC00158 (11744669_a_at) / RFU DUSP10 (11751237_a_at) / Fold change /veh DUSP10 (11751237_a_at) / RFU ID3 (11757404_x_at) / Fold change /veh ID3 (11757404_x_at) / RFU PLEKHG5 (11737974_s_at) / Fold change /veh PLEKHG5 (11737974_s_at) / RFU LRRC4B (11730491_at) / Fold change /veh LRRC4B (11730491_at) / RFU GIMAP4 (11747438_a_at) / Fold change /veh GIMAP4 (11747438_a_at) / RFU KRT8 (11758183_x_at) / Fold change /veh KRT8 (11758183_x_at) / RFU CNN1 (11734310_a_at) / Fold change /veh CNN1 (11734310_a_at) / RFU VPS37D (11726825_at) / Fold change /veh VPS37D (11726825_at) / RFU C10orf10 (11716522_x_at) / Fold change /veh C10orf10 (11716522_x_at) / RFU KIR2DL2 /// KIR2DL4 /// KIR2DL5A /// KIR2DL5B /// KIR2DS1 /// KIR2DS2 /// KIR2DS3 /// KIR2DS4 /// KIR3DL3 /// KIR3DL3 /// KIR3DS1 (11738374_at) / Fold change /veh KIR2DL2 /// KIR2DL4 /// KIR2DL5A /// KIR2DL5B /// KIR2DS1 /// KIR2DS2 /// KIR2DS3 /// KIR2DS4 /// KIR3DL3 /// KIR3DL3 /// KIR3DS1 (11738374_at) / RFU C1QL1 (11718748_at) / Fold change /veh C1QL1 (11718748_at) / RFU TMPRSS4 (11747572_a_at) / Fold change /veh TMPRSS4 (11747572_a_at) / RFU HAMP (11756126_x_at) / Fold change /veh HAMP (11756126_x_at) / RFU RNFT2 (11725882_a_at) / Fold change /veh RNFT2 (11725882_a_at) / RFU NR4A2 (11747474_a_at) / Fold change /veh NR4A2 (11747474_a_at) / RFU ABCC12 (11746883_a_at) / Fold change /veh ABCC12 (11746883_a_at) / RFU TMEM136 (11760407_x_at) / Fold change /veh TMEM136 (11760407_x_at) / RFU CLDN22 /// WWC2 (11732394_at) / Fold change /veh CLDN22 /// WWC2 (11732394_at) / RFU HLA-DPB1 (11760878_x_at) / Fold change /veh HLA-DPB1 (11760878_x_at) / RFU SPINT1 (11716480_a_at) / Fold change /veh SPINT1 (11716480_a_at) / RFU GAP43 (11754022_s_at) / Fold change /veh GAP43 (11754022_s_at) / RFU A4GNT (11735810_at) / Fold change /veh A4GNT (11735810_at) / RFU PRB3 (11715151_x_at) / Fold change /veh PRB3 (11715151_x_at) / RFU TUBB4B (11761932_at) / Fold change /veh TUBB4B (11761932_at) / RFU CAPN14 (11732068_a_at) / Fold change /veh CAPN14 (11732068_a_at) / RFU TMCC2 (11721928_a_at) / Fold change /veh TMCC2 (11721928_a_at) / RFU IRGQ (11745062_a_at) / Fold change /veh IRGQ (11745062_a_at) / RFU FAM174B (11720279_a_at) / Fold change /veh FAM174B (11720279_a_at) / RFU TMPRSS4 (11748680_a_at) / Fold change /veh TMPRSS4 (11748680_a_at) / RFU FAM212B (11763350_a_at) / Fold change /veh FAM212B (11763350_a_at) / RFU PLEKHG5 (11743358_a_at) / Fold change /veh PLEKHG5 (11743358_a_at) / RFU ZSCAN30 (11745921_a_at) / Fold change /veh ZSCAN30 (11745921_a_at) / RFU CMKLR1 (11741424_a_at) / Fold change /veh CMKLR1 (11741424_a_at) / RFU LOC101060620 /// MAPK8IP1 (11723275_at) / Fold change /veh LOC101060620 /// MAPK8IP1 (11723275_at) / RFU SPTSSB (11747773_x_at) / Fold change /veh SPTSSB (11747773_x_at) / RFU PRSS12 (11739890_at) / Fold change /veh PRSS12 (11739890_at) / RFU BIN1 (11741810_x_at) / Fold change /veh BIN1 (11741810_x_at) / RFU WNT11 (11732464_a_at) / Fold change /veh WNT11 (11732464_a_at) / RFU C10orf10 (11716521_a_at) / Fold change /veh C10orf10 (11716521_a_at) / RFU C5orf56 (11738089_at) / Fold change /veh C5orf56 (11738089_at) / RFU CYB561 (11721691_x_at) / Fold change /veh CYB561 (11721691_x_at) / RFU ANKRD19P (11752326_a_at) / Fold change /veh ANKRD19P (11752326_a_at) / RFU OR2T12 /// OR2T33 /// OR2T8 (11738714_s_at) / Fold change /veh OR2T12 /// OR2T33 /// OR2T8 (11738714_s_at) / RFU VCAN (11748164_a_at) / Fold change /veh VCAN (11748164_a_at) / RFU JSRP1 (11732532_at) / Fold change /veh JSRP1 (11732532_at) / RFU KRTAP10-11 (11738290_x_at) / Fold change /veh KRTAP10-11 (11738290_x_at) / RFU MYO3A (11730013_a_at) / Fold change /veh MYO3A (11730013_a_at) / RFU EBF3 (11725865_a_at) / Fold change /veh EBF3 (11725865_a_at) / RFU CAMK2N1 (11719241_x_at) / Fold change /veh CAMK2N1 (11719241_x_at) / RFU C5orf56 (11738088_a_at) / Fold change /veh C5orf56 (11738088_a_at) / RFU OLFML3 (11715873_a_at) / Fold change /veh OLFML3 (11715873_a_at) / RFU LOC100653217 /// NTM (11731650_a_at) / Fold change /veh LOC100653217 /// NTM (11731650_a_at) / RFU MAPK11 (11762145_a_at) / Fold change /veh MAPK11 (11762145_a_at) / RFU FIZ1 (11724087_x_at) / Fold change /veh FIZ1 (11724087_x_at) / RFU OASL (11726364_x_at) / Fold change /veh OASL (11726364_x_at) / RFU SOX15 (11748057_x_at) / Fold change /veh SOX15 (11748057_x_at) / RFU CD79A (11719716_a_at) / Fold change /veh CD79A (11719716_a_at) / RFU HIST1H1D (11736915_at) / Fold change /veh HIST1H1D (11736915_at) / RFU CASKIN2 (11723855_a_at) / Fold change /veh CASKIN2 (11723855_a_at) / RFU LOC730098 (11760151_x_at) / Fold change /veh LOC730098 (11760151_x_at) / RFU OR4N2 (11742367_at) / Fold change /veh OR4N2 (11742367_at) / RFU PRRT2 (11749266_a_at) / Fold change /veh PRRT2 (11749266_a_at) / RFU SNX32 (11753110_a_at) / Fold change /veh SNX32 (11753110_a_at) / RFU CDHR5 (11726645_a_at) / Fold change /veh CDHR5 (11726645_a_at) / RFU RCAN1 (11760418_a_at) / Fold change /veh RCAN1 (11760418_a_at) / RFU FAM167A (11723789_a_at) / Fold change /veh FAM167A (11723789_a_at) / RFU FAM26E (11764081_at) / Fold change /veh FAM26E (11764081_at) / RFU ISYNA1 (11749810_s_at) / Fold change /veh ISYNA1 (11749810_s_at) / RFU ACY1 (11761880_at) / Fold change /veh ACY1 (11761880_at) / RFU 11764098_at / Fold change /veh 11764098_at / RFU SAMD14 (11745864_x_at) / Fold change /veh SAMD14 (11745864_x_at) / RFU NPB (11741838_a_at) / Fold change /veh NPB (11741838_a_at) / RFU TMPRSS6 (11731388_a_at) / Fold change /veh TMPRSS6 (11731388_a_at) / RFU KRTAP10-2 (11738614_at) / Fold change /veh KRTAP10-2 (11738614_at) / RFU ARHGAP8 /// PRR5-ARHGAP8 (11727945_x_at) / Fold change /veh ARHGAP8 /// PRR5-ARHGAP8 (11727945_x_at) / RFU KRTAP5-7 /// NADSYN1 (11734609_at) / Fold change /veh KRTAP5-7 /// NADSYN1 (11734609_at) / RFU RASL12 (11751679_a_at) / Fold change /veh RASL12 (11751679_a_at) / RFU CDKN2B (11736163_a_at) / Fold change /veh CDKN2B (11736163_a_at) / RFU PRF1 (11729649_at) / Fold change /veh PRF1 (11729649_at) / RFU, ZNF638 /// ZNF638-IT1 / Fold change vs veh, ZNF638 /// ZNF638-IT1 / RFU, PANK3 / Fold change vs veh, PANK3 / RFU, SH3YL1 / Fold change vs veh, SH3YL1 / RFU, ZEB2 / Fold change vs veh, ZEB2 / RFU, NRIP1 / Fold change vs veh, NRIP1 / RFU, PTTG1IP / Fold change vs veh, PTTG1IP / RFU, CAPN2 / Fold change vs veh, CAPN2 / RFU, MED14 / Fold change vs veh, MED14 / RFU, SNORA58 / Fold change vs veh, SNORA58 / RFU, C1orf63 / Fold change vs veh, C1orf63 / RFU, LRRFIP1 / Fold change vs veh, LRRFIP1 / RFU, NDUFAF7 / Fold change vs veh, NDUFAF7 / RFU, SLC12A2 / Fold change vs veh, SLC12A2 / RFU, IBTK / Fold change vs veh, IBTK / RFU, ESF1 / Fold change vs veh, ESF1 / Fold change vs veh, TMEM50B / RFU, TAOK1 / Fold change vs veh, TAOK1 / RFU, ACBD3 / Fold change vs veh, ACBD3 / RFU, TMA16 / Fold change vs veh, TMA16 / RFU, RWDD3 / Fold change vs veh, RWDD3 / RFU, BCAT1 / Fold change vs veh, BCAT1 / RFU, EDEM3 / Fold change vs veh, EDEM3 / RFU, TMEM33 / Fold change vs veh, TMEM33 / RFU, WDR75 / Fold change vs veh, WDR75 / RFU, AHCTF1 / Fold change vs veh, AHCTF1 / RFU, TFRC / Fold change vs veh, TFRC / RFU, ZDHHC17 / Fold change vs veh, ZDHHC17 / RFU, NOM1 / Fold change vs veh, NOM1 / RFU, ARL8B / Fold change vs veh, ARL8B / RFU, ZBTB11 / Fold change vs veh, ZBTB11 / RFU, TAMM41 / Fold change vs veh, TAMM41 / RFU, KIAA1704 /// LOC100996395 / Fold change vs veh, KIAA1704 /// LOC100996395 / RFU, ING1 / Fold change vs veh, ING1 / RFU, TRMT61B / Fold change vs veh, TRMT61B / RFU, FUBP3 / Fold change vs veh, FUBP3 / RFU, TP53 / Fold change vs veh, TP53 / RFU, TNKS2 / Fold change vs veh, TNKS2 / RFU, ZFP14 / Fold change vs veh, ZFP14 / RFU, ACTR2 / Fold change vs veh, ACTR2 / RFU, PPP3R1 / Fold change vs veh, PPP3R1 / RFU, PIK3R1 / Fold change vs veh, PIK3R1 / RFU, HNRNPA1 / Fold change vs veh, HNRNPA1 / RFU, RNF170 / Fold change vs veh, RNF170 / RFU, ZNF28 / Fold change vs veh, ZNF28 / RFU, RNGTT / Fold change vs veh, RNGTT / RFU, OGT / Fold change vs veh, OGT / RFU, BRD1 / Fold change vs veh, BRD1 / RFU, MARS / Fold change vs veh, MARS / RFU, ZNF655 / Fold change vs veh, ZNF655 / RFU, FAHD1 / Fold change vs veh, FAHD1 / RFU, BDP1 / Fold change vs veh, BDP1 / RFU, LRRCC1 / Fold change vs veh, LRRCC1 / RFU, ARID1A / Fold change vs veh, ARID1A / RFU, ZNF146 / Fold change vs veh, ZNF146 / RFU, ZNF330 / Fold change vs veh, ZNF330 / RFU, GPN3 / Fold change vs veh, GPN3 / RFU, C9orf123 / Fold change vs veh, C9orf123 / RFU, N4BP2L2 / Fold change vs veh, N4BP2L2 / RFU, ARFIP1 / Fold change vs veh, ARFIP1 / RFU, FAM179B / Fold change vs veh, FAM179B / RFU, BCL10 / Fold change vs veh, BCL10 / RFU, UHRF1BP1L / Fold change vs veh, UHRF1BP1L / RFU, BET1 / Fold change vs veh, BET1 / RFU, CNOT2 / Fold change vs veh, CNOT2 / RFU, ZNF268 / Fold change vs veh, ZNF268 / Fold change vs veh, ZNF507 / RFU, DGCR2 / Fold change vs veh, DGCR2 / RFU, WDSUB1 / Fold change vs veh, WDSUB1 / Fold change vs veh, HSP90B1 /// MIR3652 / RFU, ADSS / Fold change vs veh, ADSS / RFU, GK / Fold change vs veh, GK / RFU, ZNF148 / Fold change vs veh, ZNF148 / RFU, TAF9 / Fold change vs veh, TAF9 / RFU, SLC1A5 / Fold change vs veh, SLC1A5 / RFU, SLMO2 / Fold change vs veh, SLMO2 / RFU, ABCC4 / Fold change vs veh, ABCC4 / RFU, LOC101060439 /// RAP1B / Fold change vs veh, LOC101060439 /// RAP1B / RFU, RFX7 / Fold change vs veh, RFX7 / RFU, GTPBP10 / Fold change vs veh, GTPBP10 / RFU, CNEP1R1 / Fold change vs veh, CNEP1R1 / RFU, BIVM-ERCC5 /// ERCC5 / Fold change vs veh, BIVM-ERCC5 /// ERCC5 / RFU, ILF3 / Fold change vs veh, ILF3 / RFU 11762660_at / Fold change /veh 11762660_at / RFU VCAN (11757783_s_at) / Fold change /veh VCAN (11757783_s_at) / RFU DDX43 (11728927_at) / Fold change /veh DDX43 (11728927_at) / RFU KRT8 (11758188_x_at) / Fold change /veh KRT8 (11758188_x_at) / RFU NKD1 (11759106_at) / Fold change /veh NKD1 (11759106_at) / RFU SRD5A1 (11742802_a_at) / Fold change /veh SRD5A1 (11742802_a_at) / RFU TPSAB1 /// TPSB2 (11721975_s_at) / Fold change /veh TPSAB1 /// TPSB2 (11721975_s_at) / RFU GSTM3 (11746129_a_at) / Fold change /veh GSTM3 (11746129_a_at) / RFU IL23R (11737362_x_at) / Fold change /veh IL23R (11737362_x_at) / RFU TMEM51 (11727254_a_at) / Fold change /veh TMEM51 (11727254_a_at) / RFU PIWIL2 (11732686_x_at) / Fold change /veh PIWIL2 (11732686_x_at) / RFU ORM1 (11744905_x_at) / Fold change /veh ORM1 (11744905_x_at) / RFU CCDC152 (11743942_at) / Fold change /veh CCDC152 (11743942_at) / RFU ECM1 (11717891_a_at) / Fold change /veh ECM1 (11717891_a_at) / RFU IL23R (11748794_a_at) / Fold change /veh IL23R (11748794_a_at) / RFU TNFAIP8L3 (11732012_x_at) / Fold change /veh TNFAIP8L3 (11732012_x_at) / RFU MBOAT4 (11741988_at) / Fold change /veh MBOAT4 (11741988_at) / RFU 11764193_at / Fold change /veh 11764193_at / RFU TMEM53 (11763286_at) / Fold change /veh TMEM53 (11763286_at) / RFU MAGEB2 (11727129_at) / Fold change /veh MAGEB2 (11727129_at) / RFU TMEM200A (11744735_a_at) / Fold change /veh TMEM200A (11744735_a_at) / RFU CCDC152 (11751479_a_at) / Fold change /veh CCDC152 (11751479_a_at) / RFU FAM211A (11726209_a_at) / Fold change /veh FAM211A (11726209_a_at) / RFU RGS16 (11746705_a_at) / Fold change /veh RGS16 (11746705_a_at) / RFU VCAN (11755009_s_at) / Fold change /veh VCAN (11755009_s_at) / RFU RHOB (11743442_s_at) / Fold change /veh RHOB (11743442_s_at) / RFU RGS16 (11720943_a_at) / Fold change /veh RGS16 (11720943_a_at) / RFU RGS16 (11720944_at) / Fold change /veh RGS16 (11720944_at) / RFU, VPS4B / Fold change vs veh, VPS4B / RFU, CREB1 / Fold change vs veh, CREB1 / RFU, DNAJC13 / Fold change vs veh, DNAJC13 / RFU, GNAQ / Fold change vs veh, GNAQ / RFU, CDK5R1 / Fold change vs veh, CDK5R1 / RFU, ZRANB3 / Fold change vs veh, ZRANB3 / RFU, CUL4A / Fold change vs veh, CUL4A / RFU, CCNY / Fold change vs veh, CCNY / RFU, UFL1 / Fold change vs veh, UFL1 / RFU, COG3 / Fold change vs veh, COG3 / RFU, DIAPH2 / Fold change vs veh, DIAPH2 / RFU, SKA2 / Fold change vs veh, SKA2 / RFU, AFF3 / Fold change vs veh, AFF3 / RFU, LMF1 / Fold change vs veh, LMF1 / RFU, IPO11 / Fold change vs veh, IPO11 / RFU, DFFB / Fold change vs veh, DFFB / RFU, FOXP1 / Fold change vs veh, FOXP1 / RFU, CARD8 / Fold change vs veh, CARD8 / RFU, STRN3 / Fold change vs veh, STRN3 / RFU, ADK / Fold change vs veh, ADK / RFU, RASSF2 / Fold change vs veh, RASSF2 / RFU, WIPF1 / Fold change vs veh, WIPF1 / RFU, LARP1B / Fold change vs veh, LARP1B / RFU, RASA1 / Fold change vs veh, RASA1 / RFU, RB1 / Fold change vs veh, RB1 / RFU, PPFIA1 / Fold change vs veh, PPFIA1 / RFU, MAT2A / Fold change vs veh, MAT2A / RFU, CCT5 / Fold change vs veh, CCT5 / RFU, WDR92 / Fold change vs veh, WDR92 / RFU, CUX1 / Fold change vs veh, CUX1 / RFU, TTC7A / Fold change vs veh, TTC7A / RFU, TMEM135 / Fold change vs veh, TMEM135 / RFU, DEPTOR / Fold change vs veh, DEPTOR / RFU, CPM / Fold change vs veh, CPM / RFU, DNAJB6 / Fold change vs veh, DNAJB6 / RFU, CACNA2D3 / Fold change vs veh, CACNA2D3 / RFU, DTX4 / Fold change vs veh, DTX4 / RFU, TFCP2 / Fold change vs veh, TFCP2 / RFU, GMCL1 /// GMCL1P1 / Fold change vs veh, GMCL1 /// GMCL1P1 / RFU, AEBP2 / Fold change vs veh, AEBP2 / RFU, SNHG1 /// SNORD22 /// SNORD25 /// SNORD26 /// SNORD27 /// SNORD28 /// SNORD29 /// SNORD31 / Fold change vs veh, SNHG1 /// SNORD22 /// SNORD25 /// SNORD26 /// SNORD27 /// SNORD28 /// SNORD29 /// SNORD31 / Fold change (Aza/veh), C12orf56 (ProbeSet 11735607_a_at) / Fold change (ACY-1035/veh), C12orf56 (ProbeSet 11735607_a_at) / Fold change (Aza/veh), FGFR1OP (ProbeSet 11751329_s_at) / Fold change (ACY-1035/veh), FGFR1OP (ProbeSet 11751329_s_at) / Fold change (Aza/veh), VPS36 (ProbeSet 11739960_a_at) / Fold change (ACY-1035/veh), VPS36 (ProbeSet 11739960_a_at) / RFU SYPL1 (11715823_x_at) / Fold change /veh SYPL1 (11715823_x_at) / RFU IGFBP7 (11715501_s_at) / Fold change /veh IGFBP7 (11715501_s_at) / RFU REEP3 (11722064_at) / Fold change /veh REEP3 (11722064_at) / RFU IGLL1 (11728026_x_at) / Fold change /veh IGLL1 (11728026_x_at): dose or concentration left out as unconfirmed
Conditions: MV-4-11 cells, 48 hours

SMILES: Nc1ccc(-c2cccs2)cc1NC(=O)c1ccc2c(c1)cc(C1CC1)n2CCN1CCOCC1 [ACY-1035]
- RFU A4GNT (11735810_at): 16.59 RFU
